Data reported in US6215002A, “Pyrrolopyrrolone derivatives as inhibitors of neutrophil elastase” (priority 1996, dated 2001).
Where a name gives a salt, the structure may show the parent alone.

target: T1, human neutrophil elastase (Homo sapiens, UniProt P08246); assay: In vitro assay of human neutrophil elastase (HNE); format: biochemical; conditions: 118 nM purified human neutrophil elastase, pH 8.6, 15 min incubation at 30° C., MeO-succinyl-alanyl-alanyl-prolyl-valyl-p-nitroanilide substrate; read-out: HNE IC50
T1 sequence (P08246 30-267): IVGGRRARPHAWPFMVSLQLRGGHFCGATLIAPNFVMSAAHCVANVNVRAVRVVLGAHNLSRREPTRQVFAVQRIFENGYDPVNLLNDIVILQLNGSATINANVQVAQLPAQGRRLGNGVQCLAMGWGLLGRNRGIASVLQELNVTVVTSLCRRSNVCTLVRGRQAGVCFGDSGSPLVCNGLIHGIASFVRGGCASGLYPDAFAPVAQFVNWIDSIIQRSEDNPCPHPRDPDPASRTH
Procedure: In Vitro Assays of Human Neutrophil Elastase
118 nM purified human neutrophil elastase
Suitable concentrations of compound under test diluted with water from a 10 mM stock solution in dimethylsulphoxide. Values above are final concentrations after the addition of substrate solution (see below).
The mixture above is incubated for fifteen minutes at 30° C. at which time the remaining elastase activity is measured for 10 minutes in a BioTek 340i plate-reader, after the addition of 0.6 mM MeO-succinyl-alanyl-alanyl-prolyl-valyl-p-nitroanilide. The rate of increase in absorbance at 405 nm is proportional to elastase activity. Enzyme activity is plotted against concentration of inhibitor and an IC50 determined using curve fitting software.
1. The compounds were tested in the in vitro elastase test described earlier in the description.

| IC50 | SMILES |
| --- | --- |
| 27 nM | CCC[C@H]1C(=O)N(S(C)(=O)=O)[C@H]2CCN(S(=O)(=O)c3ccc(N(C)C)cc3)[C@H]12 (relative stereo) [Example 221, rel-(3R, 3aR,6aS)-4-[4-Dimethylamino-benzenesufonyl)-1-methanesulfonyl-3-propyl-hexahydro-pyrrolo[3,2-b]pyrrol-2-one] |
| 107 nM | CCC[C@H]1C(=O)N(S(C)(=O)=O)[C@H]2CCN(S(=O)(=O)c3cccc([N+](=O)[O-])c3)[C@H]12 (relative stereo) [Example 222, rel-(3R,3aR,6aS)-1-Methanesulfonyl-4-(3-nitro-benzenesulfonyl)-3-propyl-hexahydro-pyrrolo[3,2-b]pyrrol-2-one] |
| 120 nM | CCC[C@H]1C(=O)N(S(C)(=O)=O)[C@H]2CCN(S(=O)(=O)c3ccccc3C(F)(F)F)[C@H]12 (relative stereo) [Example 225, rel-(3R,3aR,6aS)-1-Methanesulfonyl-3-propyl-4-(2-trifluoromethyl-benzenesulfonyl)-hexahydro-pyrrolo[3,2-b]pyrrol-2-one] |
| 33 nM | CCC[C@H]1C(=O)N(S(C)(=O)=O)[C@H]2CCN(C(=O)c3cccn3C)[C@H]12 (relative stereo) [Example 240, rel-(3R,3aR,6aS)-1-Methanesulfonyl-4-(1-methyl-1H-pyrrole-2-carbonyl)-3-propyl-hexahydro-pyrrolo[3,2-b]pyrrol-2-one] |
| 87 nM | CCC[C@H]1C(=O)N(S(C)(=O)=O)[C@H]2CCN(S(=O)(=O)c3ccccc3[N+](=O)[O-])[C@H]12 (relative stereo) [Example 226, rel-(3R,3aR,6aS)-1-Methanesulfonyl-4-(2-nitro-benzenesulfonyl)-3-propyl-hexahydro-pyrrolo[3,2-b]pyrrol-2-one] |
| 14 nM | CCC[C@H]1C(=O)N(S(C)(=O)=O)[C@H]2CCN(S(=O)(=O)c3ccc(C(=O)NCCN(C)C)cc3)[C@H]12 (relative stereo) [Example 123, rel-N-(2-Dimethylamino-ethyl)-4-(4-methanesulfonyl-5-oxo-6R-propyl-hexahydro-(3aS,6aR)-pyrrolo[3,2-b]pyrrole-1-sulfonyl)-benzamide hydrochloride] |
| 78 nM | CC(C)[C@H]1C(=O)N(S(C)(=O)=O)[C@H]2CCN(C(=O)CCCC3CCN(C)CC3)[C@H]12 (relative stereo) [Example 256, rel-(3R,3aR,6aS)-3-Isopropyl-1-methanesulfonyl-4-[4-(1-methyl-piperidin-4-yl)-butyryl]-hexahydro-pyrrolo[3,2-b]pyrrol-2-one hydrochloride] |
| 26 nM | CCC[C@H]1C(=O)N(S(C)(=O)=O)[C@H]2CCN(S(=O)(=O)c3ccc(C#N)cc3)[C@H]12 (relative stereo) [Example 218, rel-4-(4-Methanesulfonyl-5-oxo-6R-propyl-hexahydro-(3aS,6aR)-pyrrolo[3,2-b]pyrrole-1-sulfonyl)-benzonitrile] |
| 9 nM | CCC[C@H]1C(=O)N(S(C)(=O)=O)[C@H]2CCN(C(=O)c3ccccn3)[C@H]12 (relative stereo) [Example 238, rel-(3R,3aR,6aS)-1-Methanesulfonyl-3-propyl-4-(pyridine-2-carbonyl)-hexahydro-pyrrolo[3,2-b]pyrrol-2-one] |
| 22 nM | CCC[C@H]1C(=O)N(S(C)(=O)=O)[C@H]2CCN(C(=O)c3ccc(NC(C)=O)nc3)[C@H]12 (relative stereo) [Example 241, rel-N-[5-(4-Methanesulfonyl-5-oxo-6R-propyl-hexahydro(3aS,6aR)-pyrrolo[3,2-b]pyrrole-1-carbonyl)-pyridin-2-yl]-acetamide] |
| 30 nM | CCC[C@H]1C(=O)N(S(C)(=O)=O)[C@H]2CCN(C(=O)/C=C/C(=O)OCC)[C@H]12 (relative stereo) [Example 128, rel-(3R,3aR,6aS)-4-(4-Methanesulfonyl-5-oxo-6-propyl-hexahydro-pyrrolo[3,2-b]pyrrole-1-yl)-4-oxo-but-2E-enoic acid ethyl ester] |
| 287 nM | CCC[C@H]1C(=O)N(S(=O)(=O)C(C)C)[C@H]2CCN(S(=O)(=O)CCCN3CCCCC3)[C@H]12 (relative stereo) [Example 166, rel-(3R,3aR,6aS)-4-(3-Piperidin-1-yl-propane-1-sulfonyl)-1-(propane-2-sulfonyl)-3-propyl-hexahydro-pyrrolo[3,2-b]pyrrol-2-one DL-tartrate] |

Further lines, the molecule ahead of its results:

| SMILES | IC50 |
| --- | --- |
| CCCCOc1ccc(C(=O)N2CC[C@H]3[C@H]2[C@@H](CCC)C(=O)N3S(C)(=O)=O)cc1 (relative stereo) [Example 239, rel-(3R,3aR,6aS)-4-(4-Butoxy-benzoyl)-1-methanesulfonyl-3-propyl-hexahydro-pyrrolo[3,2-b]pyrrol-2-one] | 18 nM |
| CCC[C@H]1C(=O)N(S(C)(=O)=O)[C@H]2CCN(C(=O)CCCCCN3CCCC3)[C@H]12 (relative stereo) [Example 73, rel-(3R,3aR,6aS)-1-Methanesulfonyl-3-propyl-4-(6-pyrrolidin-1-yl-hexanoyl)-hexahydro-pyrrolo[3,2-b]pyrrol-2-one hydrochloride] | 74 nM |
| CCC[C@H]1C(=O)N(S(=O)(=O)c2ccc3ccccc3c2)[C@H]2CCN(S(=O)(=O)CCCN3CCCCC3)[C@H]12 (relative stereo) [Example 13, rel-(3R,3aR,6aS)-1-(Naphthalene-2-sulfonyl)-(3-piperidin-1-yl-propane-1-sulfonyl)-3-propyl-hexahydro-pyrrolo[3,2-b]pyrrol-2-one] | 543 nM |
| C=CC[C@H]1C(=O)N(S(=O)(=O)c2ccc3ccccc3c2)[C@H]2CCN(C(=O)OCc3ccccc3)[C@H]12 (relative stereo) [Example 1, rel-(3aS,6R,6aR)-6-Allyl-4-(naphthalene-2-sulfonyl)-5-oxo-hexahydro-pyrrolo[3,2-b]pyrrole-1-carboxylic acid benzyl ester] | 36 nM |
| CCC[C@H]1C(=O)N(S(C)(=O)=O)[C@H]2CCN(C(=O)CCN3CCN(C)CC3)[C@H]12 (relative stereo) [Example 94, rel-(3R,3aR,6aS)-1-Methanesulfonyl-4-[3-(4-methyl-piperazin-1-yl)-propionyl]-3-propyl-hexahydro-pyrrolo[3,2-b]pyrrol-2-one dihydrochloride] | 81 nM |
| CCC[C@H]1C(=O)N(S(C)(=O)=O)[C@H]2CCN(S(=O)(=O)CCCN3CCCCC3)[C@H]12 (relative stereo) [Example 9, rel-(3R,3aR,6aS)-1-Methanesulfonyl-4-(3-piperidin-1-yl-propane-1-sulfonyl)-3-propyl-hexahydro-pyrrolo[3,2-b]pyrrol-2-one] | 54 nM |
| C=CC[C@H]1C(=O)N(S(C)(=O)=O)[C@H]2CCN(C(=O)OCc3ccccc3)[C@H]12 (relative stereo) [Example 6, rel-(3aS,6R,6aR)-6-Allyl-4-methanesulfonyl-5-oxo-hexahydro-pyrrolo[3,2-b]pyrrole-1-carboxylic acid benzyl ester] | 70 nM |
| CCC[C@H]1C(=O)N(S(C)(=O)=O)[C@H]2CCN(C(=O)CCN3CCC(C(N)=O)CC3)[C@H]12 (relative stereo) [Example 98, rel-(3R,3aR,6aS)-1-[3-(4-Methanesulfonyl-5-oxo-6-propyl-hexahydro-pyrrolo[3,2-b]pyrrol-1-yl)-3-oxo-propyl]-piperidine-4-carboxylic acid amide hydrochloride] | 159 nM |
| CCC[C@H]1C(=O)N(S(=O)(=O)c2ccc3ccccc3c2)[C@H]2CCN(C(=O)CCCN(C)C)[C@H]12 (relative stereo) [Example 25, rel-(3R,3aR,6aS)-4-(4-Dimethylamino-butyryl)-1-(naphthalene-2-sulfonyl)-3-propyl-hexahydro-pyrrolo[3,2-b]-pyrrol-2-one] | 59 nM |
| CCC[C@H]1C(=O)N(S(C)(=O)=O)[C@H]2CCN(C(=O)CCCN3CCC3)[C@H]12 (relative stereo) [Example 84, rel-(3R,3aR,6aS)-4-(4-Azetidin-1-yl-butyryl)-1-methanesulfonyl-3-propyl-hexahydro-pyrrolo[3,2-b]pyrrol-2-one DL-tartrate] | 134 nM |
| CCC[C@H]1C(=O)N(S(C)(=O)=O)[C@H]2CCN(S(=O)(=O)Cc3cccc(-c4nnn[nH]4)c3)[C@H]12 (relative stereo) [Example 27, rel-(3R,3aR,6aS)-1-Methanesulfonyl-3-propyl-4-[3-(1H-tetrazol-5-yl)-phenylmethanesulfonyl]-hexahydro-pyrrolo[3,2-b]pyrrol-2-one] | 55 nM |
| CCC[C@H]1C(=O)N(S(C)(=O)=O)[C@H]2CCN(C(=O)c3ccc(NC(C)=O)cc3)[C@H]12 (relative stereo) [Example 120, rel-N-[4-(4-Methanesulfonyl-5-oxo-6R-propyl-hexahydro-(3aS,6aR)-pyrrolo[3,2-b]pyrrole-1-carbonyl)-phenyl]-acetamide] | 42 nM |
| CCC[C@H]1C(=O)N(S(C)(=O)=O)[C@H]2CCN(C(C)=O)[C@H]12 (relative stereo) [Example 28, rel-(3R,3aR,6aS)-4-Acetyl-1-methanesulfonyl-3-propyl-hexahydro-pyrrolo[3,2-b]pyrrol-2-one] | 64 nM |
| CCC[C@H]1C(=O)N(S(=O)(=O)c2ccc3ccccc3c2)[C@H]2CCN(C(=O)CCN3CCCCC3)[C@H]12 [Example 56, (3R,3aR,6aS)-1-(Naphthalene-2-sulfonyl)-4-(3-piperidin-1-yl-propionyl)-3-propyl-hexahydro-pyrrolo[3,2-b]pyrrol-2-one hydrochloride] | 81 nM |
